From patent US6242428A, “Nucleoside analogs and uses in treating Plasmodium falciparum infection” (Unisearch Limited, priority 1998, dated 2001)
“Also recorded” adds a separate entry of the source. Where two headings read alike, the source gives them in different places.

How the values were obtained:
[1] = tested on: erythrocyte infected with P. falciparum; settings: cited from earlier work
[2] = tested on: normal erythrocytes and other cell types; settings: cited from earlier work
P. falciparum = assay: In vitro toxicity against P. falciparum in culture (radiolabelled hypoxanthine incorporation / lactate dehydrogenase assay); assay type: cell-based, Plasmodium falciparum, FCQ27; settings: for toxicity against P. falciparum, in words: statement in the transport and metabolism study
Procedure: P. falciparum, FCQ27, was maintained in culture using the techniques described by Trager & Jensen (W. Traqer and J. B. Jensen, Science, 193 673-675 (1976)). Cultures containing 2% hematocrit suspensions of parasitized human type O^+ erythrocytes in RPMI 1640 medium, supplemented with 25 mM HEPES-KOH, pH 7.2, 25 mM NaHCO3 and 10% human type O^+ serum (v/v) are maintained in modular incubator chambers at 37° C. in a gas mixture of 5% O2, 5% CO2 and 90% N2. The isolate of P. falciparum used in these experiments was FCQ27, routinely maintained in synchronized or asynchronous in vitro cultures at low hematocrit.
The potential toxicity of nucleoside analogues against P. falciparum in culture was tested in microtitre plates over the range of drug concentrations for 24 hours. The procedures for monitoring parasite viability is well established (A. M. Gero, H. V. Scott, W. J. O'Sullivan and R. I. Christopherson, Mol. Biochem. Parasitol. 34, 87-89 (1989)) and is based on radiolabelled hypoxanthine or isoleucine incorporation. The incorporation of [G-^3 H]hypoxanthine into the nucleic acids of P. falciparum was used to assess the viability of the parasite in vitro. Microculture plates were prepared with each well containing 225 μl of a 2% hematocrit culture of asynchronous parasited erythrocytes (1% parasitized cells). Each plate, containing varying concentrations of the drug to be studied (up to 200 μM final concentration for initial screen), was incubated for 24 h at 37° C. in a gas mixture of 5% O2, 5% CO2 and 90% N2, at which point [G-^3 H] hypoxanthine was added to each well and the incubation continued under identical conditions for a further 18-20 h. The control infected cells (i.e. without drug), routinely reached a parasitemia of 6-8% before harvesting. Expediency was aided by 96-well plate counter using lactate dehydrogenase for the drug susceptibility assay (L. K. Basco, F. Marguet, M. T. Makler and J. Lebbras, Exp. Parasitol. 80, 260-271 (1995); M. T. Makler and D. J. Hinrichs; Am. J. Trop. Med. Hyg. 48, 205-210 (1993)). This assay gave the identical results to the hypoxanthine technique. In addition, for each experiment, microscopic counting of Giemsa stained thin slides was used as a control.
The biological screen involved evaluation of the compounds against the protozoan P. falciparum in in vitro culture. The range of drug concentrations was used independently by two assays. One, radiolabelled hypoxanthine incorporation into the nucleic acid of P. falciparum, and the other, more expedient assay, a 96-well plate susceptibility assay using lactate dehydrogenase. Both assays gave identical results. In addition, microscopic counting of Giemsa stained thin slides was used as a control. Examples of experimental curves are attached as Appendix 2. The biological tests were done at several concentrations. The highest concentration was 200 μM, the compounds were considered active at concentrations less than 40 μM.

[3] = tested on: P. falciparum infected erythrocytes (trophozoites); assay type: in vitro ADME, human erythrocytes infected with Plasmodium falciparum
Procedure: (§1) The metabolism of the L-nucleoside conjugates was studied by HPLC analysis. The primary aim was to determine their ability to be catabolized by parasite purine salvage enzymes. Some effect on the purine metabolic pools was also observed.
(§2) For each HPLC determination 200 μL of packed cells of 80-90% trophozoite infected cells were used. These were isolated from in vitro cultures by synchronization of the parasites in in vitro cultures using sterile D-sorbitol (L. Lambros and J. P. Vanderberg, Parasitol. 65, 418-420 (1979)) followed by separation of the trophozoites from non infected erythrocytes by Percoll gradients as described previously (A. M. Gero, H. V. Scott, W. J. O'Sullivan and R. I. Christopherson, Mol. Biochem. Parasitol. 34, 87-89 (1989)). Trophozoites were incubated at 37° C. for 2 hours with each compound to be tested. Compounds were incubated with both whole infected cells as whole and lyzed uninfected normal erythrocytes to determine:
a) entry to the cell (whether they were transported);
Drug incubation was terminated by centrifugation through silicon oil using the method of Upston and Gero (J. M. Upston and A. M. Gero, Biochem. Biophys. Acta. 1236, 249-258 (1995)). This procedure separated intact trophozoites from extracellular non-transported drug solution.
(§3) The metabolism of nucleosides with potential chemotherapeutic activity was assessed by the analysis of cytoplasmic samples by reverse phase ion-pair high performance liquid chromatography (R. S. Toguzov, Y. V. Tikhonov, A. M. Pimenov, V. Prokudin, Journal of Chromatography, I. Biomedical Appl. 434, 447-453 (1988)). Nucleotides, nucleosides and bases were separated by this HPLC method.
It has been established that transport and uptake in parasite invaded cells is different from that of normal blood erythrocytes (A. M. Gero & A. M. Wood, In: Pyrine & Pyrimidine Methabolism in Man VII, Part A. (R. A. Harkness et al., Eds) Plenum Press, NY, 169-172 (1991)). Invasion by the malaria parasite comprises the cell membrane, allowing penetration of unnatural substances of various size and shape, whereas normal cells are very selective in uptake. It was shown that L-nucleosides and their derivatives easily penetrate invaded cells, while they have a very slow rate of uptake into normal cells, if they enter at all. In order to obtain preliminary data on transport, uptake and metabolism, the HPLC method was used to analyze the following 10 Lipitek compounds: L-101, L-103, L-109, L-111, L-117, L-133, L-138, GCl 1007, GCl 1027, GCl 1069.
(§4) These compounds were chosen for the identification of possible metabolites. In this experiment the compounds were incubated with both whole infected cells, and with whole and lysed uninfected cells, followed by the separation of unreacted compound and HPLC analysis.

[4] = tested on: P. falciparum infected erythrocytes (trophozoites); assay type: in vitro ADME, human erythrocytes infected with Plasmodium falciparum; remark: listed apart in the source
Procedure: as §1, §2
b) the metabolic effect within the cell (was the compound metabolized);
as §3, §4

[5] = tested on: P. falciparum strain W2 (chloroquin resistant); assay: U.S. Army Antimalarial Test Program in vitro screen, strain W2; assay type: cell-based, Plasmodium falciparum; settings: 15 dimers, D6 and W2 stated together
From the text: (§5) Fifteen L-nucleoside dimers (L-101, L-103, L-103A, L-107, L-110, L-111, L-112, L-114, L-117, L-120, L-122, L-124, L-125, L-133 & L-138) from Lipitek's library were submitted for in vitro screen to the U.S. Army Antimalarial Test Program (for the structures of the compounds, see FIG. 7). The compounds have been tested for their activity against two P. falciparum strains: D6 (chloroquin non-resistant) and W2 (chloroquin resistant).

[6] = tested on: P. falciparum strain D6 (chloroquin non-resistant); assay: U.S. Army Antimalarial Test Program in vitro screen, strain D6; assay type: cell-based, Plasmodium falciparum; settings: 15 dimers, D6 and W2 stated together
From the text: as §5

[7] = tested on: human prostate phosphotransferase; settings: cited from earlier work
[8] = Solubility remark in the in vitro testing; settings: Tables 1 and 6
[9] = Plasmodium falciparum, 24 h, Table 1, 24 h drug exposure, up to 200 μM, read-out: IC50
[10] = Plasmodium falciparum, Table 2, FUdR linkage position 5', read-out: IC50
[11] = Plasmodium falciparum, Table 4, Phosphate "bridge" O=P--O, read-out: IC50
[12] = Plasmodium falciparum, Table 3, α-L configuration of the L-nucleoside, read-out: IC50
[13] = Plasmodium falciparum, Table 3, β-L configuration of the L-nucleoside, read-out: IC50

Molecule | entry to the infected cell [3] | In vitro activity against P. falciparum, in words (P. falciparum) | IC50 (P. falciparum; [9]) [µM] | IC50 (P. falciparum; [10]) [µM] | IC50 (P. falciparum; [11]) [µM] | toxicity against P. falciparum, in words (P. falciparum) | activity ranking in words, strain W2 [5] | activity ranking in words, strain D6 [6] | further results
Nc1ncnc2c1ncn2[C@H]1O[C@@H](CO)[C@H](O)[C@@H]1O [GCI 1032, β-L-adenosine] | – | – | – | – | – | – | – | – | transport into infected erythrocyte [1]: selectively transported into an erythrocyte infected with P. falciparum; permeability/uptake of normal erythrocytes and other cells [2]: completely impermeable; IC50 (P. falciparum; Plasmodium falciparum, 24 h): > 200 µM
O=c1[nH]c(=O)n([C@H]2C[C@H](OP(=O)(O)OC[C@H]3O[C@@H](n4cc(F)c(=O)[nH]c4=O)C[C@@H]3O)[C@@H](CO)O2)cc1F [L-101, [β-D]2 -FUdR] | entered the infected cells | most active | 15 | 15 | 15 | toxic against P. falciparum | most active | most active | metabolism by the infected cells [4]: metabolized by the infected cells
O=c1[nH]c(=O)n([C@H]2C[C@@H](OP(=O)(O)OC[C@H]3O[C@@H](n4cc(F)c(=O)[nH]c4=O)C[C@@H]3O)[C@H](CO)O2)cc1F [L-103] | entered the infected cells | – | 20 | 20 | 20 | toxic against P. falciparum | – | – | IC50 (P. falciparum; [12]): 20 µM
O=c1[nH]c(=O)n([C@@H]2C[C@@H](O)[C@H](COP(=O)(O)O[C@@H]3C[C@@H](n4cc(F)c(=O)[nH]c4=O)O[C@H]3CO)O2)cc1F [L-109, 3'-O-(β-L-5-fluoro-2'-deoxyuridinyl)-β-L-5-fluoro-2'-deoxyuridine] | could not enter the infected cell | did not exhibit any activity | > 200 | – | – | not toxic | – | – | –
O=c1[nH]c(=O)n([C@@H]2C[C@@H](OP(=O)(O)OC[C@H]3O[C@@H](n4cc(F)c(=O)[nH]c4=O)C[C@@H]3O)[C@H](CO)O2)cc1F [L-110, 3'-O-(β-D-5-fluoro-2'-deoxyuridinyl)-β-L-5-fluoro-2'-deoxyuridine] | – | – | 20 | 20 | – | – | most active | most active | IC50 (P. falciparum; [13]): 20 µM
Nc1ccn([C@H]2C[C@@H](OP(=O)(O)OC[C@H]3O[C@@H](n4cc(F)c(=O)[nH]c4=O)C[C@@H]3O)[C@H](CO)O2)c(=O)n1 [L-111, 3'-O-(β-D-5-fluoro-2'-deoxyuridinyl)-α-L-2'-deoxycytidine] | entered the infected cells | most active; also recorded: no obvious difference in the activity | 38 | 38 | – | toxic against P. falciparum | – | – | IC50 (P. falciparum; [12]): 38 µM
O=c1ccn([C@@H]2C[C@@H](OP(=O)(O)OC[C@H]3O[C@@H](n4cc(F)c(=O)[nH]c4=O)C[C@@H]3O)[C@H](CO)O2)c(=O)[nH]1 [L-117] | entered the infected cells | – | 35 | – | 35 | toxic against P. falciparum | most active | most active | –
Nc1ncnc2c1ncn2[C@@H]1C[C@@H](OP(=O)(O)OC[C@H]2O[C@@H](n3cc(F)c(=O)[nH]c3=O)C[C@@H]2O)[C@H](CO)O1 [L-138, β-L-dA, β-D-FUdR] | entered the infected cells | most active | 5 | 5 | 5 | toxic against P. falciparum | most active | most active | IC50 (P. falciparum; [13]): 5 µM; IC50 (P. falciparum; Plasmodium falciparum, Table 4, Phosphorothioate "bridge" S=P--O, read-out: IC50): 100 µM; metabolism by the infected cells [4]: metabolized by the infected cells
O=c1ccn([C@H]2O[C@@H](CO)[C@H](O)[C@@H]2O)c(=O)[nH]1 [β-L-uridine] | – | – | – | – | – | – | – | – | phosphorylation at the 5'-position [7]: not phosphorylated at the 5'-position
α-L-FUdR 3'-5'SATE [B07] | – | – | – | – | – | – | – | – | Solubility (printed in the IC50/ID50 column) [8]: Solubility problem
β-L-FUdR 3'-5'SATE [B05] | – | – | – | – | – | – | – | – | Solubility (printed in the IC50/ID50 column) [8]: Solubility problem
β-L-dG, β-D-FUdR [L-133] | entered the infected cells | most active | – | – | – | toxic against P. falciparum | most active | most active | IC50 (P. falciparum; Table 1, 24 h drug exposure, up to 200 μM, read-out: IC50): 14 µM; IC50 (P. falciparum; Table 2, FUdR linkage position 5', read-out: IC50): 14 µM; metabolism by the infected cells [4]: metabolized by the infected cells
